In assay [1] the test system is human diploid fibroblasts. Kind of assay: confocal microscopic measurement of actin polymerization (NBD-phallacidin). The class given is cell-based. Particulars: PDGF 50 ng/ml, LPA 1 μg/ml. As to the method: FIG. 2 represents differential changes in growth factor-induced actin polymerization in senescent fibroblasts. […] The cells were fixed, permeabilized, and stained with NBD-phallacidin, then photographed.
F-actin was stained as described by Shin et al. (1999). Quiescent cells grown on glass cover slips in multi-well culture plates were treated with agonists for 30 min, and the cells were fixed with 3.7% paraformaldehyde in PBS for 30 min on ice. Following permeabilization with 0.2% Triton X-100 in PBS for 15 min on ice, the cells were stained with […] NBD-phallacidin in PBS for 30 min at RT. The stained cells were washed three times with PBS for 15 min and the cover slip was mounted on a slide glass with Gelvatol, which was prepared by mixing 100 ml of 23% polyvinyl alcohol in PBS with 50 ml glycerol. The cells were then observed under a confocal fluorescence microscope.

The next assay deals with cellular cAMP. Kind of assay: measurement of cyclic AMP accumulation (cAMP binding assay). The class given is cell-based, human. As to the method:
FIG. 9 represents LPA-induced alteration of cellular cAMP content in presenescent and near-senescent fibroblasts. Subconfluent presenescent (passage 8, Pa 8) and near-senescent (passage 24, Pa 24) fibroblasts were serum-starved for 2 days and treated with LPA: A, 1-70 μg/ml LPA for 30 min; B, 30 μg/ml LPA for the indicated times. The level of cAMP in the acid extracts was measured by cAMP binding assay. The data represents an average of triplicate experiments.
Subconfluent near-senescent (passage 26, Pa 26) fibroblasts were serum-starved for 2 days and treated with 30 μg/ml LPA for the indicated times in the absence or presence of 10 μM PKC inhibitor bisindolylmaleiamide (bIM). The level of cAMP in the acid extracts was measured by cAMP binding assay. The data represents an average of triplicate experiments.
Cells grown on a 12 well-plate were serum-starved by incubating with SFM for 2 days. After the cells were equilibrated in the fresh SFM medium for 1 hour, they were treated with LPA as described in the figure. The reaction was terminated by removing the medium and by adding 2.5 M perchloric acid. The acid extract was stored at −20° C. until use. The acid extract was neutralized with 4.2 M KOH and the cAMP content was determined by competitive binding with [^3H]cAMP to the cAMP binding protein, RIα of cAMP-dependent protein kinase, as described by Jang and Juhnn (2001). After the extraction, cells were lyzed with 0.1 N NaOH and analyzed for protein content using the Bradford protein assay reagent. The cAMP content was normalized to the amount of acid-insoluble protein.

Another assay deals with adenylyl cyclases (ACs). Kind of assay: measurement of adenylyl cyclase activity in membranes of LPA-treated cells. To be noted: 30 μg/ml LPA. The class given is cell-based, human. On the procedure:
Subconfluent presenescent (passage 8, Pa 8) and near-senescent (passage 24, Pa 24) fibroblasts were serum-starved for 2 days and treated with 30 μg/ml LPA for the indicated times. The activities of adenylyl cyclase (A) and phosphodiesterase (B) were determined in the fresh membranes and total cell lysates as described in Materials and Methods. The enzyme activities were calculated as pmol/μg/min. The data represents an average of triplicate experiments.
Cells seeded in a 10-cm culture plate were serum-starved and treated with LPA as described in the figure legends. Cells were harvested and homogenized in ice-cold homogenization buffer containing 0.25 M sucrose, 10 mM Tris-HCl, pH 7.5, 10 mM MgCl2, 2 mM EGTA, and protease inhibitors. Homogenates were centrifuged at 20,000×g at 4° C. for 20 min. Pellets were washed twice with the above buffer, resuspended in 10 mM Tris-HCl, pH 7.4, and 10 MM MgCl2, and the adenylyl cyclase assays were performed as described previously (Jang et al. 2001). The membrane proteins (15 μg/ml) were incubated for 10 min at 30° C. in a reaction mixture (100 μl) containing 40 mM Tris, pH 7.4, 0.2 mM EGTA, 100 mM NaCl, 10 mM MgCl2, 0.5 mM ATP, 5 μg/ml phosphocreatine, 5 IU/ml creatine phosphokinase, 10 μM GTP, and 0.5 mM IBMX. The reaction was stopped by adding 2.5 M perchloric acid. The amount of cAMP generated was determined by cAMP binding assay.

Assay [2] relates to human diploid fibroblasts. Kind of assay: LPA-stimulated cell proliferation (viable cell count or MTT assay). The class given is cell-based. To be noted: 4 days treatment. The source says: The optical density at 570 nm was plotted (A). The actual viable cell numbers were plotted (B).
In order to study the role of LPA-induced cAMP signaling, the inventors further compared LPA-stimulated cell proliferation between presenescent and near-senescent cells. After 4 days treatment with vehicle or LPA, the level of viable cells were counted or measured by MTT assay.
In general terms: Tetrazolium dyes change colour on reduction, which living cells bring about.

For lysophosphatidic acid [LPA], the “actin polymerization (stress fibers)” value in assay [1] (presenescent fibroblasts (passage 10)) was “enhanced the formation of stress fibers”. Moreover, the “agonist-induced actin polymerization in senescent cells” value in assay [1] (senescent cells (passage 27)) is reported as “partially reduced”. Further, in the assay on cellular cAMP (near-senescent fibroblasts, 30 μg/ml LPA for 60 min), the “increase of cellular cAMP content” value is listed as 70-80%. The “increase of cellular cAMP” value in the assay with cellular cAMP (near-senescent fibroblasts, 30 min, LPA 1-70 μg/ml) is given as 31-77%. Besides, the “decrease of cellular cAMP” value in the assay with cellular cAMP (presenescent fibroblasts, 30 min, LPA 1-70 μg/ml) was 33-43%. Moreover, the “total AC activity” value in the assay with adenylyl cyclases (ACs) (near-senescent cells) is listed as “increased”; with adenylyl cyclases (ACs) (presenescent cells), “reduced time-dependently”. Also, the “rate of LPA-stimulated proliferation” value in assay [2] (near-senescent cells) is listed as “partially decreased”. Also, the cell proliferation entry in assay [2] (presenescent cells) was “stimulated proliferation of presenescent cells dose-dependently”.

Values taken from patent publication US20060099568A1, “Signals and molecular species involved in senescence” (priority 2002, published 2006).
